How the values were obtained:
[1] = biological target: T1, Gamma-aminobutyric acid receptor subunit alpha-1 (Rattus norvegicus, UniProt P62813)
Mu-type opioid receptor = Mu-type opioid receptor (Homo sapiens, UniProt P35372)
Adenosine receptor A3 = biological target: T2, Adenosine receptor A3 (Homo sapiens, UniProt P0DMS8)
T2 sequence (P0DMS8 whole entry): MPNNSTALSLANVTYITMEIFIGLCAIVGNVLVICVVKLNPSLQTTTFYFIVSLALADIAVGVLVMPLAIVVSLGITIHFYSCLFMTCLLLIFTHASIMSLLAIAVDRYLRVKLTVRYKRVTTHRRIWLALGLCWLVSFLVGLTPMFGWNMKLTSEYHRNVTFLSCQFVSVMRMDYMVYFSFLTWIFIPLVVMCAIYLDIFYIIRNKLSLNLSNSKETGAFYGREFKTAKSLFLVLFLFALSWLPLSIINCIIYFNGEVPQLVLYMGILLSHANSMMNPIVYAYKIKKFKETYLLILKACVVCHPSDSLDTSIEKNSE

[2] = biological target: T3, Muscarinic acetylcholine receptor M2 (Homo sapiens, UniProt P08172); assay type: functional, cell-based
T3 sequence (P08172 whole entry): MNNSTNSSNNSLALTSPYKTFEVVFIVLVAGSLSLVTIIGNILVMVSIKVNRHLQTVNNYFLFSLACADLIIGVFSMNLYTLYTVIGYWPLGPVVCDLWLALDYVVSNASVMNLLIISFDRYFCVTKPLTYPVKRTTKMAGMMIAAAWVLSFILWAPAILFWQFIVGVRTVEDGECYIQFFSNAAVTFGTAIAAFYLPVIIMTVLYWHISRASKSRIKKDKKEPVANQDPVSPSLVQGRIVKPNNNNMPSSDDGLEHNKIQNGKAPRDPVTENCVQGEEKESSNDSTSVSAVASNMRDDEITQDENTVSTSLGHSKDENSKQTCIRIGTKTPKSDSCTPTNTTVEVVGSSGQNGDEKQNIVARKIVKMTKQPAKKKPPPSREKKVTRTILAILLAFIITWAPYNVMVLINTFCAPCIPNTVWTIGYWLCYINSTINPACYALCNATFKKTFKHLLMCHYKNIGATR

Histamine H2 receptor = Histamine H2 receptor (Homo sapiens, UniProt P25021); assay type: functional, cell-based
Adenosine receptor A1 = biological target: T4, Adenosine receptor A1 (Homo sapiens, UniProt P30542)
T4 sequence (P30542 whole entry): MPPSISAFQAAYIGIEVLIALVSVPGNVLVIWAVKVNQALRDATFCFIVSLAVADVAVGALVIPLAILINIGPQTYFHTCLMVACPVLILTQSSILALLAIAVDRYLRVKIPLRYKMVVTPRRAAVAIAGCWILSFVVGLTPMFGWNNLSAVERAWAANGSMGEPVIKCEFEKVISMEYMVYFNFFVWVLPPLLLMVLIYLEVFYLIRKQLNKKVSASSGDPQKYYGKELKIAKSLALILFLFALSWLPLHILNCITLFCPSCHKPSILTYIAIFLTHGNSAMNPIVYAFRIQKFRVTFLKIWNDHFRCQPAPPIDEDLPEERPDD

[3] = biological target: Beta-2 adrenergic receptor (Homo sapiens, UniProt P07550); assay type: functional, cell-based
Endothelin-1 receptor = biological target: T5, Endothelin-1 receptor (Homo sapiens, UniProt P25101)
T5 sequence (P25101 whole entry): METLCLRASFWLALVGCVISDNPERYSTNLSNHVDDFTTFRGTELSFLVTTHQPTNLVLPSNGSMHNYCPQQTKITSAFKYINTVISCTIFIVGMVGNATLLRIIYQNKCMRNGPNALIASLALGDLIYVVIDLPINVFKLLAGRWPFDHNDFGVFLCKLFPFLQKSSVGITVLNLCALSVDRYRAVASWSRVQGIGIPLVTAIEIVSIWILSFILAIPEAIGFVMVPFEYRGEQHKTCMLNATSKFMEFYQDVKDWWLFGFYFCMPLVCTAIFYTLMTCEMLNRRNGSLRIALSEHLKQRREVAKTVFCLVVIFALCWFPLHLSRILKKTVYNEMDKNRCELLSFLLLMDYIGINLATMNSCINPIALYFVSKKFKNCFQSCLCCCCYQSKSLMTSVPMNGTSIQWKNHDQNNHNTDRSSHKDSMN

[4] = biological target: T6, 5-hydroxytryptamine receptor 1A (Homo sapiens, UniProt P08908); assay type: functional, cell-based
T6 sequence (P08908 whole entry): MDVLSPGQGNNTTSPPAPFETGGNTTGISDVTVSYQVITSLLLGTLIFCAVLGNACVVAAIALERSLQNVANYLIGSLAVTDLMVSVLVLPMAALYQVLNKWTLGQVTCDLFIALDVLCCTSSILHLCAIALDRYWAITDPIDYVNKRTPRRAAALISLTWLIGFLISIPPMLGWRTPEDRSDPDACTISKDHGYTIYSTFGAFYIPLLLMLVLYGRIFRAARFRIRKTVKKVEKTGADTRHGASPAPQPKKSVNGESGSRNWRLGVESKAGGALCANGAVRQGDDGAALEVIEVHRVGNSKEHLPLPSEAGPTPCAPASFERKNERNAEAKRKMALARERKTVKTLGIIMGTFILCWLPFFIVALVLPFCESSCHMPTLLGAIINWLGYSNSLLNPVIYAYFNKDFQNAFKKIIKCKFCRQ

Thromboxane A2 receptor = biological target: T7, Thromboxane A2 receptor (Homo sapiens, UniProt P21731)
T7 sequence (P21731 whole entry): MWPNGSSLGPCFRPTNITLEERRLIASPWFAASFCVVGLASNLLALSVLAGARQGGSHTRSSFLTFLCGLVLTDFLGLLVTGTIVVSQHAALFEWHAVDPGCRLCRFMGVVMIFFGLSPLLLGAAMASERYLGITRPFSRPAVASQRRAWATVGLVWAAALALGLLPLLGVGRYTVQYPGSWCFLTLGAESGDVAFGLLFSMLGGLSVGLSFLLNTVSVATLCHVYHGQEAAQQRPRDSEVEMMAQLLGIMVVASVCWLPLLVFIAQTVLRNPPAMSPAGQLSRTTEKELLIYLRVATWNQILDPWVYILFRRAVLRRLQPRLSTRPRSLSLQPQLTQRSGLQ

Cannabinoid receptor 1 = Cannabinoid receptor 1 (Homo sapiens, UniProt P21554); assay type: functional, cell-based
[5] = biological target: T1, Gamma-aminobutyric acid receptor subunit alpha-1; assay type: functional
Further: assay procedure not described here.

Histamine H2 receptor, sequence (P25021 whole entry): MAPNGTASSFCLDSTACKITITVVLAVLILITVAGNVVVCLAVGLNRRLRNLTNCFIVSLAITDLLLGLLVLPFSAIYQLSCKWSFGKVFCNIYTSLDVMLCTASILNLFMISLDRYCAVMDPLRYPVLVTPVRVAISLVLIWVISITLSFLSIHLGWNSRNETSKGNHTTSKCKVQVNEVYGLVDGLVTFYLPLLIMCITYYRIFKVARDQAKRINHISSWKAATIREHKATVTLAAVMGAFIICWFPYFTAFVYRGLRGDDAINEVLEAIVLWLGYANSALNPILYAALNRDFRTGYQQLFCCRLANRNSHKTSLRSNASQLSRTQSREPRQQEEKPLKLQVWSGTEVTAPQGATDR
T1 sequence (P62813 whole entry): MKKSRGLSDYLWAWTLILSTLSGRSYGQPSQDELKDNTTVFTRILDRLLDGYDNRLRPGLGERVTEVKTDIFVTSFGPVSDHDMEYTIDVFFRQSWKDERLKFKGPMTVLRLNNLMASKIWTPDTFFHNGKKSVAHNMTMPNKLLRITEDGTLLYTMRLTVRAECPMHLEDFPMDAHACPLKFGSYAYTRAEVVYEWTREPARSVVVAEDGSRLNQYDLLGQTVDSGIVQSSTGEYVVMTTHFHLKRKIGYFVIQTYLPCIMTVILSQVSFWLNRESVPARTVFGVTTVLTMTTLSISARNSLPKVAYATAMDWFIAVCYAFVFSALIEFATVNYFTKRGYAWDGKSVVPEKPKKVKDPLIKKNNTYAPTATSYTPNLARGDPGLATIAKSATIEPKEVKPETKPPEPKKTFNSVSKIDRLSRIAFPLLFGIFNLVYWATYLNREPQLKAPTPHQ
Cannabinoid receptor 1, sequence (P21554 whole entry): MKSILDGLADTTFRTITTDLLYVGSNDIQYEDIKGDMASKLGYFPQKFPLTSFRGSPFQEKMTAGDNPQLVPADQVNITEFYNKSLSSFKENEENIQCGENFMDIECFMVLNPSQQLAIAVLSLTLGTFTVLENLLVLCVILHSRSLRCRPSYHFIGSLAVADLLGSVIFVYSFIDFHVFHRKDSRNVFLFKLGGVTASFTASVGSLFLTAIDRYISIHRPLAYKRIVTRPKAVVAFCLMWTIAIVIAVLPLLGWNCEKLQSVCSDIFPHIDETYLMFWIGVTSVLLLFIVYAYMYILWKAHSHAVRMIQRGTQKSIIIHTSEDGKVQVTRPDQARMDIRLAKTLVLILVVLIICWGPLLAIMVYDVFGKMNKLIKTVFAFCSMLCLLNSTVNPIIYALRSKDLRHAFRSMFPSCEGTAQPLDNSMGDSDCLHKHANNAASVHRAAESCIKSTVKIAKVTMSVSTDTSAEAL
Beta-2 adrenergic receptor, sequence (P07550 whole entry): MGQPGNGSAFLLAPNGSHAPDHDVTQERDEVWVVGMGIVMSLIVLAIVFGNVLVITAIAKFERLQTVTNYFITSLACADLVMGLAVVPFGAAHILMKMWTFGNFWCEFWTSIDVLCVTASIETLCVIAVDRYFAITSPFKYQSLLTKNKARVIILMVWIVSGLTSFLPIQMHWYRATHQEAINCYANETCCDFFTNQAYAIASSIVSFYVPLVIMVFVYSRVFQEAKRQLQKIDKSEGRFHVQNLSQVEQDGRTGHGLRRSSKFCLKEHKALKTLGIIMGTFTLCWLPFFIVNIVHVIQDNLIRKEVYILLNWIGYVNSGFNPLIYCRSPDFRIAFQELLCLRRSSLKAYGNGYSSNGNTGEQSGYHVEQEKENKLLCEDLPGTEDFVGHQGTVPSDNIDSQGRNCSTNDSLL
Mu-type opioid receptor, sequence (P35372 whole entry): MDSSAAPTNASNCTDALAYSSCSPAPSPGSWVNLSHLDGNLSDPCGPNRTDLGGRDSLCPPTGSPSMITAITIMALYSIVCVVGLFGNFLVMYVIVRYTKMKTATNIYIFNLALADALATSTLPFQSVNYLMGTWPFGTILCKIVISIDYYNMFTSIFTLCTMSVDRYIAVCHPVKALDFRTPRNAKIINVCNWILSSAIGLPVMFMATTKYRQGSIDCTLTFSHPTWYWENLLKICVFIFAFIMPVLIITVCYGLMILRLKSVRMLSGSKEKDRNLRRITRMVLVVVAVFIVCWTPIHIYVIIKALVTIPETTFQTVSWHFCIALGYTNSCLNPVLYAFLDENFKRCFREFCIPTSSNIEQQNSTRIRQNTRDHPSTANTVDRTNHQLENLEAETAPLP

Q: With `Cc1cc(=O)oc2cc(O)ccc12` [HYMECROMONE] as the compound, how does the AC50 [1] read?
A: > 30 µM

Q: Which AC50 [1] does the source give for `COc1c2occc2c(OC)c2c(=O)cc(C)oc12` [KHELLIN] here?
A: > 30 µM

Q: How did the AC50 (Mu-type opioid receptor) turn out when `CC[C@H](C)C(=O)O[C@H]1C[C@@H](C)C=C2C=C[C@H](C)[C@H](CC[C@@H]3C[C@@H](O)CC(=O)O3)[C@H]21` [LOVASTATIN] was run?
A: > 30 µM

Q: And the AC50 (Adenosine receptor A3)?
A: 28.5 µM

Q: And the AC50 [2]?
A: > 10 µM

Q: And the AC50 (Histamine H2 receptor)?
A: > 10 µM

Q: What about the AC50 (Adenosine receptor A1) of the same compound?
A: > 30 µM

Q: What about the AC50 [3] of the same compound?
A: > 30 µM

Q: What about the AC50 (Endothelin-1 receptor) of the same compound?
A: > 30 µM

Q: And the AC50 [4]?
A: > 10 µM

Q: And the AC50 (Thromboxane A2 receptor)?
A: 12 µM

Q: What about the AC50 (Cannabinoid receptor 1) of the same compound?
A: > 30 µM

Q: And the AC50 [5]?
A: > 10 µM

Q: For `COC(=O)[C@@H](N)Cc1ccc(O)c(O)c1` [MELEVODOPA], which AC50 [1] is on record?
A: > 30 µM

Q: For `C=N[C@@H](C(=O)N[C@@H]1C(=O)N2[C@@H]1SC(C)(C)[C@@H]2C(=O)O)c1ccccc1` [METAMPICILLIN], which AC50 [1] is on record?
A: > 30 µM

Q: Which AC50 [1] does the source give for `O=C(NNCS(=O)(=O)O)c1ccncc1` [METHANIAZIDE] here?
A: > 30 µM

Q: `Cc1cc(=O)[nH]c(=S)[nH]1` [METHYLTHIOURACIL] was tested. Which AC50 [1] did it give?
A: > 30 µM

Q: Which AC50 (Mu-type opioid receptor) does the source give for `CC[C@@H](CO)NC(=O)[C@@H]1C=C2c3cccc4c3c(cn4C)C[C@H]2N(C)C1` [METHYSERGIDE] here?
A: > 30 µM

Q: And the AC50 (Adenosine receptor A3)?
A: > 30 µM

Q: And the AC50 [2]?
A: > 30 µM

Q: And the AC50 (Histamine H2 receptor)?
A: 2.78 µM

Q: What about the AC50 (Adenosine receptor A1) of the same compound?
A: > 30 µM

Q: What about the AC50 [3] of the same compound?
A: > 30 µM

Q: What about the AC50 (Endothelin-1 receptor) of the same compound?
A: > 30 µM

Q: And the AC50 [4]?
A: 0.2 µM

Q: What about the AC50 (Thromboxane A2 receptor) of the same compound?
A: 24.5 µM

Q: What about the AC50 (Cannabinoid receptor 1) of the same compound?
A: > 30 µM

Q: And the AC50 [5]?
A: > 10 µM

Q: For `CN1Cc2c(N)cccc2C(c2ccccc2)C1` (stereo unspecified) [NOMIFENSINE], which AC50 (Mu-type opioid receptor) is on record?
A: 4.4 µM

Q: And the AC50 (Adenosine receptor A3)?
A: > 30 µM

Q: What about the AC50 [2] of the same compound?
A: > 30 µM

Q: And the AC50 (Histamine H2 receptor)?
A: > 30 µM

Q: What about the AC50 (Adenosine receptor A1) of the same compound?
A: > 30 µM

Q: And the AC50 [3]?
A: > 30 µM

Q: And the AC50 (Endothelin-1 receptor)?
A: > 30 µM

Q: And the AC50 [4]?
A: > 30 µM

Q: And the AC50 (Thromboxane A2 receptor)?
A: > 30 µM

Q: And the AC50 (Cannabinoid receptor 1)?
A: > 30 µM

Q: What about the AC50 [5] of the same compound?
A: > 30 µM

Q: With `C=CC(=O)Nc1cccc(Oc2nc(Nc3ccc(N4CCN(C)CC4)cc3)nc3ccsc23)c1` [OLMUTINIB] as the compound, how does the AC50 [1] read?
A: > 30 µM

Q: Which AC50 [1] does the source give for `CCCCC1C(=O)N(c2ccccc2)N(c2ccc(O)cc2)C1=O` (stereo unspecified) [OXYPHENBUTAZONE ANHYDROUS] here?
A: > 30 µM

Q: For `O=C(O)CN(CCN(CC(=O)O)CC(=O)O)CCN(CC(=O)O)CC(=O)O` [PENTETIC ACID], which AC50 [1] is on record?
A: > 30 µM

Q: `Nc1cccc2c1C(=O)N(C1CCC(=O)NC1=O)C2=O` (stereo unspecified) [POMALIDOMIDE] was tested. Which AC50 [1] did it give?
A: > 30 µM

Q: How did the AC50 [1] turn out when `C[Se]CC[C@H](N)C(=O)O` [SELENOMETHIONINE] was run?
A: > 30 µM

Q: Which AC50 [1] does the source give for `C[C@]12C=CC(=O)C=C1CC[C@H]1[C@@H]3C[C@@H](O)[C@](O)(C(=O)CO)[C@@]3(C)C[C@H](O)[C@@]12F` [TRIAMCINOLONE] here?
A: > 30 µM

Q: `CC(C)[C@H](N)C(=O)OCCOCn1cnc2c(=O)[nH]c(N)nc21` [VALACYCLOVIR] was tested. Which AC50 (Mu-type opioid receptor) did it give?
A: > 30 µM

Q: What about the AC50 (Adenosine receptor A3) of the same compound?
A: > 30 µM

Q: What about the AC50 [2] of the same compound?
A: > 10 µM

Q: And the AC50 (Histamine H2 receptor)?
A: > 10 µM

Q: And the AC50 (Adenosine receptor A1)?
A: > 30 µM

Q: And the AC50 [3]?
A: > 30 µM

Q: And the AC50 (Endothelin-1 receptor)?
A: > 30 µM

Q: What about the AC50 [4] of the same compound?
A: > 10 µM

Q: What about the AC50 (Thromboxane A2 receptor) of the same compound?
A: > 30 µM

Q: And the AC50 (Cannabinoid receptor 1)?
A: > 30 µM

Q: What about the AC50 [5] of the same compound?
A: > 10 µM

From ChEMBL document CHEMBL5291721, “A preclinical secondary pharmacology resource illuminates target-adverse drug reaction associations of marketed drugs” (Nat Commun, 2023)
